Earlier results in US20210046025A1, “Injection for Protecting Ischemic Myocardium and Preparation Method thereof” (priority 2018, published 2021).

Columns and labels:
[1] = tested on: ischemia/reperfusion myocardial infarction; settings: large animal models, clinically relevant reperfusion (Min Xie et al., Circulation 2014)
[2] = first-pass metabolism elimination

Structure (SMILES): O=C(CCCCCCC(=O)Nc1ccccc1)NO [N-suberoylanilide hydroxamic acid]
- Effect on myocardial infarction area [1]: reduce myocardial infarction area
- Solubility in oil and water: insoluble in both oil and water
- Water solubility: poor
- Oral bioavailability [2]: very low
